How the values were obtained:
[1] = set-up: method as in PMID 18058792; details: rats, intravenous administration of racemic hesperetin; cited from earlier work
[2] = First phase: relative urinary hesperidin excretion in 24 h urine after 500 mL orange juice with 345 mg hesperidin; format: in vivo, human; details: for Relative urinary hesperidin excretion, low excretors: N=3, mean ± SD
Protocol: The study consisted of two phases. In the first phase, 30 volunteers consumed 500 mL of orange juice (OJ) with 345 mg of hesperidin [9], and the levels of hesperidin excreted in urine were determined. The OJ used in the first phase of the study was the hesperidin OJ used in previous studies conducted by our group. The objective of this first phase of the study was to select volunteers with intermediate hesperidin metabolite levels excreted in urine to reduce the variability in the results in the second phase of the study.
For the first phase of the study—after at least 8 h of fasting—the participants’ urine was collected before the intake of 500 mL of OJ (basal urine) and after the intake of the OJ for 24 h, accumulated in a single volume urine (Figure 1). Urine samples were homogenized and centrifuged at 1900 g for 10 min at 4 °C, and the supernatant was collected and subdivided into aliquots which were stored at −80 °C until analysis.
Relative urinary hesperidin excretion values (% of hesperidin ingested) obtained in the first phase of the study were used to select the participants for the second phase of the study. It was calculated by the ratio between the sum of hesperidin metabolites and the amount of hesperidin consumed by the participants (345 mg). With these values, 18 volunteers with intermediate relative urinary hesperidin excretion values were selected for the second phase.
To obtain the main and secondary outcomes, the urinary levels of hesperidin metabolites and catabolites at baseline—before consuming the hesperidin supplement—and up to 24 h after consuming the hesperidin supplement in four urine fractions (0–3 h; 3–6 h; 6–8 h; 8–24 h) were determined. In addition, the serum levels of hesperidin metabolites and catabolites at baseline and at 2 h, 3 h, 4 h, 5 h, 6 h, 7 h, 8 h and 24 h after consuming the hesperidin supplement were quantified. To obtain the relative urinary hesperidin excretion in the first phase of the study, the urinary levels of hesperidin metabolites before consuming the OJ and in the 24 h urine after consuming the hesperidin supplement were determined.
Hesperetin and related metabolites were determined in urine and serum samples by liquid chromatography coupled to triple quadrupole mass spectrometry (LC-QqQ) using a UHPLC 1290 Infinity II Series coupled to a QqQ/MS 6490 Series (Agilent Technologies, Palo Alto, CA, USA) and an ACQUITY UPLC BEH C18 (100 × 2.1 mm; 1.8 µm) column (Waters, Milford, MA, USA). Mobile phase A was 100% water with 0.5% acetic acid and 10 mM ammonium acetate, and mobile phase B was 100% methanol. The column temperature was set at 45 °C and the injection volume was 5 µL. The triple quadrupole operated in negative electrospray ionization mode (ESI-). The source conditions were set at 25 psi for the nebulizer gas, 240 °C for the gas temperature, 17 L/min for the gas flow, 250 °C for the sheath gas temperature, 12 L/min for the sheath gas flow, 3500 V for the capillary voltage and 0 V for the nozzle voltage. The standards used for quantification purposes were: Hesperetin and Hesperidin (Extrasynthese, Genay, France); Hesperetin 7-O-beta-D-glucuronide, Hesperetin 3-O-beta-D-glucuronide and Hesperetin 7,3′-di-O-beta-D-glucuronide (Toronto Research Chemicals; North York, ON, Canada); Hesperitin 7-O-sulfate (Santa Cruz Biotechnology, Dallas, TX, USA). Hesperitin-d3 and Diosmetin 7-O-β-D-Glucuronide-d3 (Toronto Research Chemicals; North York, ON, Canada) were used as internal standards. […]

[3] = set-up: method as in PMID 28747329, PMID 26861391, PMID 30669635; details: humans, oral; cited from earlier work
[4] = cited from earlier work

For `COc1ccc([C@H]2CC(=O)c3c(O)cc(O)cc3O2)cc1O` [R-diastereoisomer, hesperetin], the “AUC of R-diastereoisomer compared to S-diastereoisomer” value [1] is listed as 3.2 fold.
With `COc1ccc([C@@H]2CC(=O)c3c(O)cc(O[C@@H]4O[C@H](CO[C@@H]5O[C@@H](C)[C@H](O)[C@@H](O)[C@H]5O)[C@@H](O)[C@H](O)[C@H]4O)cc3O2)cc1O` [hesperidin, hesperetin-7-O-rutinoside] the “Relative urinary hesperidin excretion, low excretors” value [2] was 0.74 ± 0.11%, the “Relative urinary hesperidin excretion, low excretors” value ([2]; listed as Hesperidin) was 0.743 ± 0.112% and the “Relative urinary hesperidin excretion, high excretors” value ([2]; N=4, mean ± SD) was 6.06 ± 1.46%. The “Relative urinary hesperidin excretion, intermediate excretors” value ([2]; N=21, mean ± SD) was 2.31 ± 1.01%, the “Mean relative urinary hesperidin excretion determined as hesperetin or hesperetin conjugates in urine” value ([2]; all participants N=28, mean ± SD) was 2.67 ± 1.79% and the “Share of ingested hesperidin that reaches the large intestine” value [3] was 70%. For the same compound, the Solubility [4] was “low” and the Water solubility [4] was “poor”.

Reference: PMC9231284, “Hesperidin Bioavailability Is Increased by the Presence of 2S-Diastereoisomer and Micronization—A Randomized, Crossover and Double-Blind Clinical Trial” (Nutrients, 2022)
